Laboratory results as given in patent US11827629B2, “CDGSH iron sulfur domain 2 activators and use thereof” (National Health Research Institutes, priority 2021, dated 2023).

system: Cisd2 promoter with firefly luciferase reporter; test: Cisd2-luciferase reporter assay in HEK293-CISD2 cells; assay type: cell-based; settings: Homo sapiens, 24 hours incubation, luciferase luminescence
Procedure: A typical in vitro screening method includes the following steps: (i) obtaining an initial level of Cisd2 in a batch of human embryonic kidney cells 293 (HEK-293 cells) that express Cisd2, (ii) treating the batch of HEK-293 cells with a compound of this invention, and (iii) analyzing the level of Cisd2 after the treatment, thereby determining the potency of the compound as a Cisd2 activator.
Compounds 1-109 were tested for increasing the level of Cisd2 in human embryonic kidney cells 293 (HEK293), a transfected cell line expressing Cisd2, using the Cisd2-luciferase reporter assay as follows.
The transfected HEK293 cells stably expressed Cisd2 promoter with firefly luciferase reporter (HEK293-CISD2). They were kept in Dulbecco's modified Eagle's medium (DMEM) (Gibco, New York, NY, USA). Culture medium was supplemented with 10% heat-inactivated fetal bovine serum (FBS), 2 mM L-Glutamine, 1 mM sodium pyruvate, 0.1% MEM Non-Essential Amino Acids, 1 ug/ml puromycin and 1% penicillin/streptomycin (HyClone, Logan, UT, USA). The cells were maintained at 37° C. in an incubator (Thermo Fisher Scientific, New York, NY, USA) with an atmosphere of 5% CO2. The stably transfected cells were seeded in 384-well plates at a density of 3×10^3 cells/well. After incubation with tested compounds at 37° C. for 24 hours, ONE-Glo™ Luciferase Assay System (Promega, Madison, WI, USA) was added at room temperature for 5 minutes to detect any luciferase activity. Luminescence intensity was registered using plate reader Victor^2V (PerkinElmer, Boston, MA, USA).
EC50 values in this table are presented in three classes, i.e., A: <1 μM, B: 1 μM-5 μM, and C: 5 μM-10 μM.

Structure (SMILES)	EC50 [nM]
O=C(CS(=O)(=O)c1nccs1)N1Cc2ccc([N+](=O)[O-])cc2C1 [Compound 36, 1-(5-nitro-1,3-dihydro-2H-isoindol-2-yl)-2-(1,3-thiazol-2-ylsulfonyl)ethanone]	1000 to 5000
Cc1cnc(S(=O)(=O)CC(=O)N2Cc3ccccc3C2)s1 [Compound 37, 1-(1,3-dihydro-2H-isoindol-2-yl)-2-[(5-methyl-1,3-thiazol-2-yl)sulfonyl]ethanone]	5000 to 10000
O=C(CS(=O)(=O)c1ccccn1)N1Cc2ccccc2C1 [Compound 38, 1-(1,3-dihydro-2H-isoindol-2-yl)-2-(pyridin-2-ylsulfonyl)ethanone]	< 1000
COc1ccc2c(c1)CN(C(=O)CS(=O)(=O)c1ccccn1)C2 [Compound 39, 1-(5-methoxy-1,3-dihydro-2H-isoindol-2-yl)-2-(pyridin-2-ylsulfonyl)ethanone]	< 1000
O=C(CS(=O)(=O)c1ccccn1)N1Cc2ccc(F)cc2C1 [Compound 40, 1-(5-fluoro-1,3-dihydro-2H-isoindol-2-yl)-2-(pyridin-2-ylsulfonyl)ethanone]	< 1000
Cc1cccc(S(=O)(=O)CC(=O)N2Cc3ccccc3C2)n1 [Compound 41, 1-(1,3-dihydro-2H-isoindol-2-yl)-2-[(6-methylpyridin-2-yl)sulfonyl]ethanone]	1000 to 5000
O=C(CS(=O)(=O)c1cccc(Cl)n1)N1Cc2ccccc2C1 [Compound 42, 2-[(6-chloropyridin-2-yl)sulfonyl]-1-(1,3-dihydro-2H-isoindol-2-yl)ethanone]	1000 to 5000
O=C(CS(=O)(=O)c1ncccn1)N1Cc2ccccc2C1 [Compound 43, 1-(1,3-dihydro-2H-isoindol-2-yl)-2-(pyrimidin-2-ylsulfonyl)ethanone]	1000 to 5000
O=C(CS(=O)(=O)c1cc[n+]([O-])cc1)N1Cc2ccccc2C1 [Compound 44, 1-(1,3-dihydro-2H-isoindol-2-yl)-2-[(1-oxidopyridin-4-yl)sulfonyl]ethanone]	5000 to 10000
O=C(CS(=O)(=O)c1ccccc1)N1Cc2ccccc2C1 [Compound 45, 1-(1,3-dihydro-2H-isoindol-2-yl)-2-(phenylsulfonyl)-ethanone]	< 1000
O=C(CS(=O)(=O)c1cccs1)N1Cc2ccccc2C1 [Compound 46, 1-(1,3-dihydro-2H-isoindol-2-yl)-2-(thiophen-2-ylsulfonyl)ethanone]	< 1000
O=C(CS(=O)(=O)Cc1ccccc1)N1Cc2ccccc2C1 [Compound 47, 2-(benzylsulfonyl)-1-(1,3-dihydro-2H-isoindol-2-yl)ethanone]	5000 to 10000
O=C(CCS(=O)(=O)c1nccs1)N1Cc2ccccc2C1 [Compound 48, 1-(1,3-dihydro-2H-isoindol-2-yl)-3-(1,3-thiazol-2-ylsulfonyl)propan-1-one]	< 1000
O=C(CCS(=O)(=O)c1ccccn1)N1Cc2ccc(F)cc2C1 [Compound 49, 1-(5-fluoro-1,3-dihydro-2H-isoindol-2-yl)-3-(pyridin-2-ylsulfonyl)propan-1-one]	1000 to 5000
O=C(N1Cc2ccc(F)cc2C1)C(F)(F)S(=O)(=O)c1ccccn1 [Compound 50, 2,2-difluoro-1-(5-fluoro-1,3-dihydro-2H-isoindol-2-yl)-2-(pyridin-2-ylsulfonyl)ethanone]	< 1000
O=C1N[C@H]2[C@H](CS[C@H]2CCCCC(=O)Oc2ccc3c(c2)CN(C(=O)CS(=O)(=O)c2nccs2)C3)N1 [Compound 51, 2-[(1,3-thiazol-2-ylsulfonyl)acetyl]-2,3-dihydro-1H-isoindol-5-yl 5-[(3aS,4S,6aR)-2-oxohexahydro-1H-thieno[3,4-d]imidazol-4-yl]pentanoate]	< 1000
O=C(N1Cc2ccccc2C1)C(F)(F)Sc1nccs1 [Compound 52, 1-(1,3-dihydro-2H-isoindol-2-yl)-2,2-difluoro-2-(1,3-thiazol-2-ylsulfanyl)ethanone]	< 1000
O=C(N1Cc2ccccc2C1)C(F)(F)S(=O)(=O)c1nccs1 [Compound 53, 1-(1,3-dihydro-2H-isoindol-2-yl)-2,2-difluoro-2-(1,3-thiazol-2-ylsulfonyl)ethanone]	< 1000
O=C(N1Cc2ccccc2C1)C(F)(F)[S+]([O-])c1nccs1 (stereo not drawn) [Compound 54, 1-(1,3-dihydro-2H-isoindol-2-yl)-2,2-difluoro-2-(1,3-thiazol-2-ylsulfinyl)ethanone]	< 1000
O=C(CSc1ccccn1)N1Cc2ccc(O)cc2C1 [Compound 55, 1-(5-hydroxy-1,3-dihydro-2H-isoindol-2-yl)-2-(pyridin-2-ylsulfanyl)ethanone]	5000 to 10000
Nc1ccc(SCC(=O)N2Cc3ccccc3C2)cc1 [Compound 61, 2-[(4-aminophenyl)sulfanyl]-1-(1,3-dihydro-2H-isoindol-2-yl)ethanone]	< 1000
O=C(CSc1ccccc1)N1Cc2cccc(F)c2C1 [Compound 66, 1-(4-fluoro-1,3-dihydro-2H-isoindol-2-yl)-2-(phenylsulfanyl)ethanone]	< 1000
Cc1nc(SCC(=O)N2Cc3ccccc3C2)sc1C [Compound 69, 1-(1,3-dihydro-2H-isoindol-2-yl)-2-[(4,5-dimethyl-1,3-thiazol-2-yl)sulfanyl]ethanone]	1000 to 5000
Cn1ccc(SCC(=O)N2Cc3ccccc3C2)n1 [Compound 70, 1-(1,3-dihydro-2H-isoindol-2-yl)-2-[(1-methyl-1H-pyrazol-3-yl)sulfanyl]ethanone]	1000 to 5000
O=C(CSc1ncco1)N1Cc2ccccc2C1 [Compound 72, 1-(1,3-dihydro-2H-isoindol-2-yl)-2-(1,3-oxazol-2-ylsulfanyl)ethanone]	< 1000
N#Cc1ccc(SCC(=O)N2Cc3ccccc3C2)s1 [Compound 74, 5-{[2-(1,3-dihydro-2H-isoindol-2-yl)-2-oxoethyl]sulfanyl}thiophene-2-carbonitrile]	< 1000
O=C(CSc1ccc(CO)s1)N1Cc2ccccc2C1 [Compound 75, 1-(1,3-dihydro-2H-isoindol-2-yl)-2-{[5-(hydroxymethyl)thiophen-2-yl]sulfanyl}ethanone]	< 1000
O=C(CSc1ccccn1)N1Cc2ccc(N3CCOCC3)cc2C1 [Compound 77, 1-[5-(morpholin-4-yl)-1,3-dihydro-2H-isoindol-2-yl]-2-(pyridin-2-ylsulfanyl)ethanone]	5000 to 10000

Now from value to molecule:

EC50 [nM]	Structure (SMILES)
< 1000	O=C(CSc1cccc(F)c1)N1Cc2ccccc2C1 [Compound 56, 1-(1,3-dihydro-2H-isoindol-2-yl)-2-[(3-fluorophenyl)sulfanyl]ethanone]
< 1000	O=C(CSc1ccc(Cl)s1)N1Cc2ccccc2C1 [Compound 57, 2-[(5-chlorothiophen-2-yl)sulfanyl]-1-(1,3-dihydro-2H-isoindol-2-yl)ethanone]
< 1000	O=C(CSc1cc(F)ccc1F)N1Cc2ccccc2C1 [Compound 58, 2-[(2,5-difluorophenyl)sulfanyl]-1-(1,3-dihydro-2H-isoindol-2-yl)ethanone]
< 1000	O=C(CSc1ccccc1F)N1Cc2ccccc2C1 [Compound 59, 1-(1,3-dihydro-2H-isoindol-2-yl)-2-[(2-fluorophenyl)sulfanyl]ethanone]
< 1000	O=C(CSc1ccc(F)cc1F)N1Cc2ccccc2C1 [Compound 60, 2-[(2,4-difluorophenyl)sulfanyl]-1-(1,3-dihydro-2H-isoindol-2-yl)ethanone]
5000 to 10000	Cc1ccc(SCC(=O)N2Cc3ccccc3C2)cc1 [Compound 62, 1-(1,3-dihydro-2H-isoindol-2-yl)-2-[(4-methylphenyl)sulfanyl]ethanone]
< 1000	O=C(CSc1ccccc1F)N1Cc2ccc(F)cc2C1 [Compound 63, 1-(5-fluoro-1,3-dihydro-2H-isoindol-2-yl)-2-[(2-fluorophenyl)sulfanyl]ethanone]
< 1000	O=C(CSc1ccccc1)N1Cc2ccc(F)cc2C1 [Compound 64, 1-(5-fluoro-1,3-dihydro-2H-isoindol-2-yl)-2-(phenylsulfanyl)ethanone]
< 1000	O=C(CSc1ccccc1F)N1Cc2cc(F)c(F)cc2C1 [Compound 65, 1-(5,6-difluoro-1,3-dihydro-2H-isoindol-2-yl)-2-[(2-fluorophenyl)sulfanyl]ethanone]
< 1000	O=C(CSc1ccccc1Cl)N1Cc2ccccc2C1 [Compound 67, 2-[(2-chlorophenyl)sulfanyl]-1-(1,3-dihydro-2H-isoindol-2-yl)ethanone]
1000 to 5000	O=C(CSc1cccc(Cl)c1Cl)N1Cc2ccccc2C1 [Compound 68, 2-[(2,3-dichlorophenyl)sulfanyl]-1-(1,3-dihydro-2H-isoindol-2-yl)ethanone]
< 1000	O=C(CSc1ncccc1F)N1Cc2ccccc2C1 [Compound 71, 1-(1,3-dihydro-2H-isoindol-2-yl)-2-[(3-fluoropyridin-2-yl)sulfanyl]ethanone]
1000 to 5000	O=C(CSc1cccc(F)n1)N1Cc2ccccc2C1 [Compound 73, 1-(1,3-dihydro-2H-isoindol-2-yl)-2-[(6-fluoropyridin-2-yl)sulfanyl]ethanone]
1000 to 5000	O=C(CSc1ccc(C(F)F)s1)N1Cc2ccccc2C1 [Compound 76, 2-{[5-(difluoromethyl)thiophen-2-yl]sulfanyl}-1-(1,3-dihydro-2H-isoindol-2-yl)ethanone]
